Experimental findings from US4402948A, “Steroid glycoside compounds and methods of use” (Nippon Shinyaku Co., Ltd., priority 1980, dated 1983) are described below.

For series [1], the system named is bleeding at the end of mouse's tail. Nature of the series: Hemostatic effects: influences on bleeding at the end of mouse's tail. It counts as in vivo. Particulars: vs untreated control. The procedure: Influences on bleeding at the end of mouse's tail:
Groups each comprising 10 male mice were employed. According to a method of Motohashi, et al. [Journal of Tokyo Jikei-kai Medical College, 75 (5) (1959)], the end of tail (1 cm) of each mouse was cut out with a sharp surgical knife and the blood threading from the wound into water was observed. A time required until the bleeding stopped completely was measured and rate of readuction of the bleeding time as compared with that of untreated control group was calculated.

Series [2] deals with hemorrage in mouse's lung. Nature of the series: Capillary stabilizing effects: inhibiting hemorrage in mouse's lung caused by pressure reduction. It is filed as in vivo. Particulars: pressure reduction to 50±0.5 mmHg/15 sec., score method; for ED50: Mus musculus, oral administration. The procedure:
C. Capillary stabilizing effects:
Effects of inhibiting hemorrage in mouse's lung:
Degree of hemorrage in mouse's lung caused by pressure reduction to 50±0.5 mmHg/15 sec. was determined by a method of G. J. Mojovski, et al. [J. Pharm. Exp. Therap., 80, 1, (1944)] (score method). From the inhibition rate calculated as compared with untreated control group, ED50 of the sample was calculated.

A short description of series [3]: Acute toxicity (LD50, Litchfield-Wilcoxon method). The note with it: mouse, in vivo, male mice. The procedure:
LD50 values of oxidized derivatives of steryl-β-D-glucoside and acetyl derivatives thereof were calculated by Litchfield-Wilcoxon method using male mice.

[4] abbreviates: ip, intraperitoneal administration, read-out: LD50 Intraperitoneal administration.
[5] abbreviates: oral administration, read-out: LD50 Oral administration.

Like-named read-outs stand apart in the source and are kept apart here.

Consider `CN1C2=CC(=O)/C(=N\NC(N)=O)C=C2CC1S(=O)(=O)[O-].[Na+]` (centres unmarked) [Sodium carbazochromesulfonate, reference compound], for which the “Reduction rate (of bleeding time)” value in series [1] (10.0 mg/Kg i.p.) stood at 21%. Also, the ED50 oral administration in series [2] is > 400 mg/kg.

Consider `CCC(CCC(C)C1CCC2C3C(=O)C=C4CC(OC5OC(COC(C)=O)C(OC(C)=O)C(OC(C)=O)C5OC(C)=O)CCC4(C)C3CCC12C)C(C)C` (centres unmarked) [Compound 6], for which the “Reduction rate (of bleeding time)” value in series [1] (0.1 mg/Kg i.p.) is 22%. Further, in series [2], the ED50 (as a rule, the midpoint of the dose-response relation) was found to be 62 mg/kg.

For the compound `CCC(C=CC(C)C1CCC2C3C(O)C=C4CC(OC5OC(CO)C(O)C(O)C5O)CCC4(C)C3CCC12C)C(C)C` (centres unmarked) [Compound 16], the LD50 is > 15000 mg/kg in series [3] (setting [4]) and > 12000 mg/kg in series [3] (setting [5]). The “Reduction rate (of bleeding time)” value in series [1] (0.1 mg/Kg i.p.) is listed as 23%.

As to `CC(C)CCCC(C)C1CCC2C3C(=O)C=C4CC(OC5OC(CO)C(O)C(O)C5O)CCC4(C)C3CCC12C` [Compound 8, (7-Ketocholesteryl)-β-D-glucopyranoside], the LD50 in series [3] (setting [4]) is > 15000 mg/kg; in series [3] (setting [5]), > 12000 mg/kg. The “Reduction rate (of bleeding time)” value in series [1] (0.1 mg/Kg i.p.) is listed as 36%.

`CC(=O)OCC1OC(OC2CCC3(C)C(=CC(=O)C4C3CCC3(C)C(C(C)CCCC(C)C)CCC43)C2)C(OC(C)=O)C(OC(C)=O)C1OC(C)=O` [Compound 5, (7-Ketocholesteryl)-2,3,4,6-tetra-0-acetyl-β-D-glucopyranoside]: the LD50 in series [3] (setting [4]) is > 15000 mg/kg; in series [3] (setting [5]) it was > 12000 mg/kg.

In the case of `CCC(CCC(C)C1CCC2C3C(O)C=C4CC(OC5OC(COC(C)=O)C(OC(C)=O)C(OC(C)=O)C5OC(C)=O)CCC4(C)C3CCC12C)C(C)C` (centres unmarked) [Compound 12], the LD50 is > 15000 mg/kg in series [3] (setting [4]) and > 12000 mg/kg in series [3] (setting [5]).

For the compound `CCC(C=CC(C)C1CCC2C3C(=O)C=C4CC(OC5OC(CO)C(O)C(O)C5O)CCC4(C)C3CCC12C)C(C)C` (centres unmarked) [Compound 10], in series [2], it took a dose of 43 mg/kg to reach the 50% effect level (ED50).

With `CC(=O)OCC1OC(OC2CCC3(C)C(=CC(O)C4C3CCC3(C)C(C(C)CCCC(C)C)CCC43)C2)C(OC(C)=O)C(OC(C)=O)C1OC(C)=O` [Compound 11, (7-hydroxycholesteryl)-2,3,4,6-tetra-0-acetyl-β-D-glucopyranoside], the “Reduction rate (of bleeding time)” value in series [1] (0.1 mg/Kg i.p.) is listed as 18%.

Regarding `CC(C)CCCC(C)C1CCC2C3C(O)C=C4CC(OC5OC(CO)C(O)C(O)C5O)CCC4(C)C3CCC12C` [Compound 14, (7-Hydroxycholesteryl)-β-D-glucopyranoside], the 50% effect level in series [2] (ED50) was put at a dose of 38 mg/kg.
